Here are results for one compound from PMC6226472, “Cardol triene inhibits dengue infectivity by targeting kl loops and preventing envelope fusion” (Scientific Reports, 2018).

One data set relates to DENV2 NGC. Put plainly: Efficacy study (EC50) in DENV2 infected Vero cells, plaque titration. It is filed as cell-based, Dengue virus. On the procedure: Next, we studied the efficacies (EC50) of the phenolic lipid homologues against DENV2 infectivity in Vero cells. Briefly, compounds at 10 different concentrations were added to DENV2-infected Vero cells (M.O.I. of 0.1) during and post infection and the viral inhibition was determined by plaque titration. […] Noted that anacardic acids were major components of CNSL extracts and all homologues were purified directly from CNSL itself.
Next, each homologue was analyzed for effective concentration (EC50). Vero (5 × 10^4) cells were seeded, and infected with DENV2 (M.O.I. of 0.1) as previously described. Phenolic lipid mixtures and homologues were serially diluted in DMSO to the final concentrations as follows; 0, 0.5, 1, 1.5, 2, 2.5, 5, 7.5, 10, 25, and 50 µM. DMSO at the concentration of 1% was used as a mock treatment referring to 100% infection. Infected cells were treated with the designated compounds during and post infection. Supernatants were collected at 3 days after infection for analysis of virion production by plaque titration. Non-linear regression analysis was used to determine the effective concentrations. […] The therapeutic index (TI) was a ration of CC50/EC50 of the compound.

A short description of data set [1]: Cytotoxic concentration (CC50), MTS. Format: cell-based. Conditions: African green monkey, Vero cells. As for the experimental part: Cytotoxic concentrations (CC50) were also studied using Vero cells. Briefly, the 10^4 cells were seeded into each well of 96-well plates. After an overnight incubation, phenolic lipids were serially diluted in DMSO to the final concentrations as follows; 25, 50, 100, 200, 300, 400, and 500 µM. Each concentration was performed in quadruplicates. DMSO at 1% was used as a mock treatment referring to 100% cell viability. Cells were incubated for 48 h before cell viability was accessed using CellTiler 96® Aqueous One Solution Cell Proliferation Assay kit (Promega, Wisconsin, USA). Non-linear regression analysis was used to determine cytotoxic concentrations (CC50) of each experiment.

The next data set deals with DENV2. Nature of the data set: Time of drug addition study (TOA). Format: cell-based, Dengue virus. The settings on record: 10 and 20 µM, added 0-48 h after infection, 72 h incubation. On the procedure: Time of drug addition assay is a standard method to primarily identify the possible target of a newly characterized compound[20]. Based on the previous efficacy results, cardol triene was chosen as a representative of all CNSL-derived phenolic lipids. Cardol triene was prepared in DMSO and added to the final concentrations of 10 µM and 20 µM to DENV2 infected Vero cells (M.O.I. of 0.1). The compound was added to the cells at different time-points. DMSO alone was added to the infected cells as a mock treatment. After 72 h incubation, cell lysates and supernatants were collected for analysis of intracellular RNAs and infectious virions by RT-qPCR and plaque titration, respectively.
Vero (5 × 10^4) cells were seeded into each well of 24-well plates. cells were infected with DENV2 (M.O.I. of 0.1) after an overnight incubation[44],[45]. Cardol triene (C15:3) at 10 and 20 µM were added to the cells during (0 h) and after infections at early time-points as follows; 1, 2, 4, 6, 8, 10, 12, 24, 36, and 48 h. Moreover, late time-points after were also accessed at 12, 14, 16, 18, 20, 22, 24, 36, 48, 60, and 72 h after infections. DMSO alone was added to the infected cells at respective time-points as a mock treatment referring to 100% infectivities. […] Data were calculated, assembled, and reported as percent intracellular RNAs and infectious virions under the drug treatment at designated time-points.

The subject of another data set is ZIKV. Put plainly: Fusion inhibition study in C6/36 cells. Format: cell-based, Zika virus. Conditions: 10 µM, C6/36, M.O.I. of 1, 48 h, MES. On the procedure:
Fusion inhibition study[25]–[27] of DENV and ZIKV were used to confirm the findings. Briefly, cardol triene at 10 µM was added to DENV2 or ZIKV (Fig. 6C-D) infected C6/36 cells at the M.O.I. of 1 for 48 h before inducing acidic condition by MES. The 4G2 antibody was used as a positive control inhibiting both DENV2 and ZIKV fusion. […] Therefore, we concluded that one of the targets of cardol triene, and other CNSL-derived phenolic lipids, was the kl loops of DENV E protein, thus preventing the conformational change of DENV dimer to trimer that was required to initiate pH-dependent fusion.
C6/36 (2 × 10^5) cells were seeded into 24-well plates before infection with DENV2 and ZIKV (M.O.I. of 1) as described. Cardol triene at 10 µM were introduced to the DENV2 and ZIKV infected cells during and after infection. […] Cells were incubate at 28 °C for 2 days before addition of 0.5 M 2-(N-morpholino) ethanesulfonic acid (MES) (pH 5.0) (Sigma Aldrich, St Louis, USA). Moreover, cells from selected wells subsequently underwent DAPI staining. Cell-cell fusion was observed under brightfield and fluorescence using an Eclipse TS100 Inverted Routine Microscope (Nikon, New York, USA).

Data set [2] has as its system BHK-21/DENV2 replicon cells. Put plainly: Replicon inhibition study, RT-qPCR of DENV2 NS1. Format: cell-based, Dengue virus. Conditions: 72 h. As for the experimental part:
We analyzed the replication inhibition using BHK-21/DENV2 replicon cells stably expressed the non-structural proteins. Cardol triene at 10 µM and 20 µM were added to the replicon cells for 72 h and the replication inhibition was accessed by RT-qPCR of DENV2 NS1. Ribavirin, a known inhibitor of flaviviral replication, was used as a positive inhibition control. […] Replicon cell viability under cardol triene treatment was also analyzed using an MTS assay. […] Therefore, we concluded that cardol triene inhibited DENV RNA replicon replication, potentially in dose-dependent manner.
BHK-21 (5 × 10^4) cells expressing DENV-2 replicon (BHK-21/DENV2)[44] were seeded as previously described. Cardol triene at 10 µM and 20 µM, DMSO, and ribavirin (TargetMol, USA) were added to the replicon cells and incubated at 37 °C for 3 days. Cells lysates were collected and viral RNA was quantified by RT-qPCR as previously described. Data were reported as percent inhibition compared with ribavirin. Three biological replicates were performed and results were means and SEM of all replicates.

The test system of another data set is ZIKV (sv0010/15). Put plainly: Efficacy (EC50) in infected Vero cells. Format: cell-based, Zika virus.
The subject of data set [3] is normal human lung fibroblast cell line, GM07492A. More on the design: method as in PMID 27934289. The settings on record: read-out: cytotoxicity value (CC50); cited from earlier work.

As for `C=CC/C=C/C/C=C/CCCCCCCc1cc(O)cc(O)c1` [Cardol triene, 5-[8(Z), 11(Z), 14-pentadecatrienyl]resorcinol], the EC50 in the data set on DENV2 NGC (Dengue virus, 72 h, DENV2 NGC (M.O.I. of 0.1) infected Vero cells, plaque titration, 3 days, read-out: EC50) came to 7.13 ± 0.72 µM. The “TI (therapeutic index, CC50/EC50)” value in the data set on DENV2 NGC (Vero CC50 / DENV2 EC50) came out at 29.07. The midpoint of cytotoxicity in data set [1], the CC50 at 48 h, lay at 207 ± 5.24 µM. Moreover, the “intracellular RNAs and infectious virions by time of drug addition” value in the data set on DENV2 is “decreased immediately at 1 h and persisted until 48 h after infections”. Also, in the data set on ZIKV, the “ZIKV pH-dependent cell fusion” value was “ZIKV-induced fused cells and nuclei were present”. In addition, the “DENV2 RNA inhibition” value is on record as 76.60 ± 7.59% in data set [2] (10 µM) and 89.44 ± 4.02% in data set [2] (20 µM). For the same compound, the Zika virus inhibition result with ZIKV (sv0010/15) is listed as “did not inhibit”. Moreover, the 50% cytotoxic concentration (CC50) in data set [3] is 193 ± 6 µM.
